In article PMC11595998, “Characterization of a New Hsp110 Inhibitor as a Potential Antifungal” (Journal of Fungi, 2024):
Numbered stars: 1 amine (or outer) side, 2 acyl side, 3 side chain; on linkers, the order of the positions; unused ones are H or OH. Bridge positions count the residues as written; N and C are the ends. Square brackets hold non-standard residues; d marks the D form. Peptide text beside a SMILES is read from it. * marks the point of attachment. pTerphenylCO(4''-OnC5H11) = CCCCCOc1ccc(-c2ccc(-c3ccc(C(=O)*)cc3)cc2)cc1; Orn(4R-OH,5R-OH) = O=C([C@H](C[C@@H](O)[C@@H](O)N[*:3])N[*:1])[*:2]; hTyr(3S-OH,4S-OH) = N[C@H](C(=O)O)[C@H](O)[C@@H](O)c1ccc(O)cc1; Pro(3S-OH,4S-Me) = C[C@H]1CN[C@H](C(=O)O)[C@H]1O; Hyp = O=C(O)[C@@H]1C[C@@H](O)CN1

Tests used:
[1] = tested on: C. albicans strain SC5314; assay: Checkerboard synergy test (FICI) of 2H with common antifungals; type: cell-based, Candida albicans; conditions: combination with 2H; SC5314, YNB medium, 37 °C, 24 h; synergy FICI ≤ 0.5, additive or indifferent > 0.5 and < 2, antagonistic > 2
Description: The assay was carried out as published previously. SC5314, the most widely-used wild-type C. albicans strain, was obtained from Dr. Ronda Rolfes (Georgetown University). An aliquot of SC5314 was thawed and grown overnight in Sabouraud medium at 30 °C. After harvesting by centrifugation at 1200× g for 5 min, the cells were washed twice using PBS. Afterward, the inoculum was prepared in the YNB medium, a yeast synthetic medium, with an OD600 of 0.0005 (corresponding to 5 × 10^3–1 × 10^4 colony forming units (CFU)). Five common antifungals (Amphotericin B, Anidulafungin, Flucytosine, Clotrimazole, and Itraconazole) were prepared in either DMSO or ddH2O according to the manufacturer’s instructions. The antifungal drugs were serially diluted in DMSO or ddH2O and added to wells containing 100 µL inoculum in sterile 96-well culture plates. In addition, serial dilutions of 2H were added in combination with the above antifungals. Wells without any compounds were used as growth controls. Incubation at 37 °C followed, and optical density measurements at 600 nm were taken after 24 h with wells containing only medium as blanks. The fractional inhibitory concentration index (FICI) was calculated to test the synergistic effect between each of these common antifungals with 2H according to the published protocols.
A checkerboard (or chequerboard) assay was carried out to assess the fractional inhibitory concentration index (FICI). The widely-used wild-type C. albicans strain SC5314 was used. […] More antifungals may need to be examined to find potential synergistic effects with 2H.
Figure 1 Synergy testing between 2H and several common antifungal drugs (A–E); Checkerboard analysis of antifungal activity for combination of 2H and several common antifungals. The heat-map plots of relative growth (calculated by setting the growth without compounds as 100%) were presented: (A) Amphotericin B; (B) Anidulafungin; (C) Flucytosine; (D) Clotrimazole; (E) Itraconazole. Color scale for relative growth is provided on the right. (F) The Fractional Inhibitory Concentration Index (FICI) for the combination of 2H and several common antifungals. The FICI is interpreted as follows: a synergistic effect when FICI ≤ 0.5; an additive or indifferent effect when FICI > 0.5 and <2; an antagonistic effect when FICI > 2. TEXT PRINTED IN THE PICTURE: (F) Amphotericin B: FICI: 1.077±0.060 | (F) Anidulafungin: FICI: 1.108±0.084 | (F) Clotrimazole: FICI: 0.741±0.092 | (F) Flucytosine: FICI: 1.261±0.075 | (F) Itraconazole: FICI: 0.862±0.013

[2] = tested on: C. neoformans Type Strain H99; assay: Antifungal susceptibility (growth) test, MIC90; type: cell-based, Cryptococcus neoformans; conditions: H99, YNB medium, 37 °C, 48 h
Description: (§1) We followed the Clinical and Laboratory Standards Institute for yeasts (CLSI M27 [80]) and our previously published protocol for the determination of MIC and MFC [33]. The C. neoformans Type Strain H99 was obtained from the laboratory of Dr. Joseph Heitman (Duke University). After growing in Sabouraud medium, this strain was resuspended in 35% glycerol, aliquoted, flash-frozen in liquid nitrogen, and stored in a −80 °C freezer.
(§2) For each experiment, a 100 µL frozen aliquot of H99 was thawed and diluted into 5 mL Sabouraud medium. After being grown at 30 °C overnight, the culture was pelleted and washed twice using PBS at room temperature. The inoculum was prepared using the YNB medium, a yeast synthetic medium, with 5 × 10^3–1 × 10^4 colony forming units (CFU) (corresponding to an OD600 of 0.0005). Sterile 96-well culture plates were used for growth tests. After aliquoting 100 µL of the inoculum into each well, serial dilutions of 2H or fluconazole were added to the wells and mixed well by pipetting up and down. After shaking at 37 °C for 48 h, growth was measured by absorbance at 600 nm using a spectrophotometric plate reader. Wells with only medium were used as blanks and wells with only inoculum were used as growth controls. […]
(§3) Figure 3 2H inhibits the growth of Cryptococcus neoformans and is fungicidal. […] (B) The MIC90 and MFC of 2H were determined on C. neoformans strain H99. […]

[3] = tested on: C. neoformans Type Strain H99; assay: Viability test, minimum fungicidal concentration (MFC); type: cell-based, Cryptococcus neoformans
Description: as §1, §2, §3

[4] = tested on: C. albicans strain SC5314; set-up: method as in PMID 37173314; conditions: combination with 2H; previous test; cited from earlier work

| Structure (SMILES) | Fractional Inhibitory Concentration Index (FICI) [1] | other results |
| --- | --- | --- |
| C[C@@H]1[C@H](O)[C@@H](C)/C=C/C=C/C=C/C=C/C=C/C=C/C=C/[C@H](O[C@@H]2O[C@H](C)[C@@H](O)[C@H](N)[C@@H]2O)C[C@@H]2O[C@](O)(C[C@@H](O)C[C@@H](O)[C@H](O)CC[C@@H](O)C[C@@H](O)CC(=O)O[C@H]1C)C[C@H](O)[C@H]2C(=O)O [Amphotericin B] | 1.077±0.060 |  |
| CCCCCOc1ccc(-c2ccc(-c3ccc(C(=O)N[C@H]4C[C@@H](O)[C@@H](O)NC(=O)[C@@H]5[C@@H](O)[C@@H](C)CN5C(=O)[C@H]([C@@H](C)O)NC(=O)[C@H]([C@H](O)[C@@H](O)c5ccc(O)cc5)NC(=O)[C@@H]5C[C@@H](O)CN5C(=O)[C@H]([C@@H](C)O)NC4=O)cc3)cc2)cc1 [Anidulafungin] ({pTerphenylCO(4''-OnC5H11)}-[Orn(4R-OH,5R-OH)]T[Hyp][hTyr(3S-OH,4S-OH)]T[Pro(3S-OH,4S-Me)]; lactam 1-C) | 1.108±0.084 |  |
| Clc1ccccc1C(c1ccccc1)(c1ccccc1)n1ccnc1 [Clotrimazole] | 0.741±0.092 |  |
| OC(Cn1cncn1)(Cn1cncn1)c1ccc(F)cc1F [Fluconazole] |  | MIC90 (minimum inhibitory concentration for 90% inhibition) [2]: 16 µM; Fungicidal or fungistatic [3]: fungistatic; Synergistic effect between 2H and fluconazole [4]: no apparent synergistic effect |
| Nc1[nH]c(=O)ncc1F [Flucytosine] | 1.261±0.075 |  |
| CCC(C)n1ncn(-c2ccc(N3CCN(c4ccc(OCC5COC(Cn6cncn6)(c6ccc(Cl)cc6Cl)O5)cc4)CC3)cc2)c1=O (centres unmarked) [Itraconazole] | 0.862±0.013 |  |
